Experimental data: PubChem BioAssay AID2060621 (Molecular Pharmacology Branch, DTP, NCI, 2025)
Values joined by “and” are separate entries in the source; they are usually repeats but may differ in a detail not shown here. Equal values may be shown once.

Test system: 324938-238-R-J1-PDC complex spheroids viability
Test: Anticancer human tumor 324938-238-R-J1-PDC patient-derived bladder carcinoma cell line growth inhibition [CLK]
Settings: for viability, T/C: stronger effect = lower value; active = viability on the fitted dose curve at most 10% of control; inactive = the rest
In short: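 Patient-derived tumor cells grown as complex spheroids with HUVEC endothelial cells and mesenchymal stem cells, treated with drug combinations. Concentrations descend in half-log steps from near clinical Cmax, or from 10 microM if Cmax unknown.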

[1] = curve of first compound, second compound 0.0316 µM
[2] = curve of first compound, second compound 0.1 µM
[3] = curve of first compound, second compound 0.316 µM
[4] = curve of first compound, second compound 1 µM
[5] = curve of first compound, second compound 3.16 µM
[6] = curve of first compound, second compound 10 µM
[7] = second compound 0.0316 µM, first compound 0.0316 µM
[8] = second compound 0.0316 µM, first compound 0.1 µM
[9] = second compound 0.0316 µM, first compound 0.316 µM
[10] = second compound 0.0316 µM, first compound 1 µM
[11] = second compound 0.0316 µM, first compound 3.16 µM
[12] = second compound 0.0316 µM, first compound 10 µM
[13] = second compound 0.1 µM, first compound 0.0316 µM
[14] = second compound 0.1 µM, first compound 0.1 µM
[15] = second compound 0.1 µM, first compound 0.316 µM
[16] = second compound 0.1 µM, first compound 1 µM
[17] = second compound 0.1 µM, first compound 3.16 µM
[18] = second compound 0.1 µM, first compound 10 µM
[19] = second compound 0.316 µM, first compound 0.0316 µM
[20] = second compound 0.316 µM, first compound 0.1 µM
[21] = second compound 0.316 µM, first compound 0.316 µM
[22] = second compound 0.316 µM, first compound 1 µM
[23] = second compound 0.316 µM, first compound 3.16 µM
[24] = second compound 0.316 µM, first compound 10 µM
[25] = second compound 1 µM, first compound 0.0316 µM
[26] = second compound 1 µM, first compound 0.1 µM
[27] = second compound 1 µM, first compound 0.316 µM
[28] = second compound 1 µM, first compound 1 µM
[29] = second compound 1 µM, first compound 3.16 µM
[30] = second compound 1 µM, first compound 10 µM
[31] = second compound 3.16 µM, first compound 0.0316 µM
[32] = second compound 3.16 µM, first compound 0.1 µM
[33] = second compound 3.16 µM, first compound 0.316 µM
[34] = second compound 3.16 µM, first compound 1 µM
[35] = second compound 3.16 µM, first compound 3.16 µM
[36] = second compound 3.16 µM, first compound 10 µM
[37] = second compound 10 µM, first compound 0.0316 µM
[38] = second compound 10 µM, first compound 0.1 µM
[39] = second compound 10 µM, first compound 0.316 µM
[40] = second compound 10 µM, first compound 1 µM
[41] = second compound 10 µM, first compound 3.16 µM
[42] = second compound 10 µM, first compound 10 µM
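Also: viability read after seven days of drug exposure.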
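For viability, T/C in this document: 100% = DMSO vehicle control wells.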

CC1(C)CCC(CN2CCN(c3ccc(C(=O)NS(=O)(=O)c4ccc(NCC5CCOCC5)c([N+](=O)[O-])c4)c(Oc4cnc5[nH]ccc5c4)c3)CC2)=C(c2ccc(Cl)cc2)C1
inactive: viability, T/C (compound 0.0316 µM) 85.9% and 77.8% | viability, T/C (compound 0.1 µM) 79.9% and 82.2% | viability, T/C (compound 0.316 µM) 84.2% and 75.7% | viability, T/C (compound 1 µM) 82% and 77.7% | viability, T/C (compound 3.16 µM) 77.1% and 68.8% | viability, T/C (compound 10 µM) 46.6% and 10.4%
8810 nM and 4580 nM: IC50 (curve of compound)

CC(CO)NC(=O)c1cc(-c2ccc(Cl)cc2)nn(-c2cnn(C)c2)c1=O (stereo unspecified) + CNC(=O)c1ccc(Nc2nc(OC3CCCC3)c3c(-c4ccc5nc(C)oc5c4)c[nH]c3n2)c(OC)c1
> 10000 nM: IC50 [1]
inactive: viability, T/C [7] 82.2% | viability, T/C [8] 90.3% | viability, T/C [9] 89.1% | viability, T/C [10] 81.1% | viability, T/C [11] 66.1% | viability, T/C [12] 50.6% | viability, T/C [13] 28.9% | viability, T/C [14] 33.2% | viability, T/C [15] 34.6% | viability, T/C [16] 35% | viability, T/C [17] 29.4% | viability, T/C [18] 28% | viability, T/C [19] 19% | viability, T/C [20] 19.3% | viability, T/C [21] 21.6% | viability, T/C [22] 18.7% | viability, T/C [23] 19.1% | viability, T/C [24] 21.1% | viability, T/C [25] 16.4% | viability, T/C [26] 16% | viability, T/C [27] 15.9% | viability, T/C [28] 16.9% | viability, T/C [29] 18.4% | viability, T/C [30] 18.6% | viability, T/C [31] 15.9% | viability, T/C [32] 15.5% | viability, T/C [33] 15.1% | viability, T/C [34] 16.2% | viability, T/C [35] 18.1% | viability, T/C [36] 17.6% | viability, T/C [37] 17.3% | viability, T/C [38] 16.3% | viability, T/C [39] 15.2% | viability, T/C [40] 16.5% | viability, T/C [41] 17% | viability, T/C [42] 15.6%
< 31.6 nM: IC50 [2] | IC50 [3] | IC50 [4] | IC50 [5] | IC50 [6]

CCCS(=O)(=O)Nc1ccc(F)c(C(=O)c2c[nH]c3ncc(-c4ccc(Cl)cc4)cc23)c1F + CNC(=O)c1ccc(Nc2nc(OC3CCCC3)c3c(-c4ccc5nc(C)oc5c4)c[nH]c3n2)c(OC)c1
8550 nM: IC50 [1]
< 31.6 nM: IC50 [2] | IC50 [3] | IC50 [4] | IC50 [5] | IC50 [6]
inactive: viability, T/C [7] 89.8% | viability, T/C [8] 89.2% | viability, T/C [9] 92.1% | viability, T/C [10] 103% | viability, T/C [11] 98.6% | viability, T/C [12] 43% | viability, T/C [13] 31.2% | viability, T/C [14] 32.5% | viability, T/C [15] 29.6% | viability, T/C [16] 29.1% | viability, T/C [17] 35.8% | viability, T/C [18] 33.8% | viability, T/C [19] 19.8% | viability, T/C [20] 18% | viability, T/C [21] 20.9% | viability, T/C [22] 19.3% | viability, T/C [23] 24.4% | viability, T/C [24] 26.1% | viability, T/C [25] 25.1% | viability, T/C [26] 15.8% | viability, T/C [27] 18.2% | viability, T/C [28] 22% | viability, T/C [29] 19.2% | viability, T/C [30] 18.1% | viability, T/C [31] 15.2% | viability, T/C [32] 15.8% | viability, T/C [33] 19.3% | viability, T/C [34] 19.1% | viability, T/C [35] 22.4% | viability, T/C [36] 15.5% | viability, T/C [37] 17.5% | viability, T/C [38] 18.8% | viability, T/C [39] 17.4% | viability, T/C [40] 18.3% | viability, T/C [41] 23.9% | viability, T/C [42] 17.2%
